Values after ≈ are worked out from the molar mass of the structure shown. Non-standard residues stand in square brackets, D forms with d. Residues, ends and D or L forms follow the SMILES beside them. Aib = CC(C)(N)C(=O)O
Key:
[1] = system: Jurkat lymphocytes; conditions: read-out: Toxicity; Table 3; IC50, Jurkat, 48 h at 37° C.; footnote a: non-toxic and soluble in cell culture medium at this concentration
[2] = Thermodynamic solubility in PBS (pH 7.4); assay type: physicochemical; conditions: phosphate buffered saline, pH 7.4, Table 3; PBS pH 7.4, 24 h at 22° C.; read-out: Solubility
Excerpt: Values in parentheses represent 95% confidence intervals. N.D., not determined.
Measurements represent duplicate or more replicates, with active peptides subjected to multiple replicates. ND: not determined. The peptide was non-toxic and soluble in cell culture medium at this concentration.

[3] = system: endosomes of Jurkat lymphocytes; assay: Endosome disruption in Jurkat lymphocytes: release of carboxyfluorescein from disulfide probe Compound 2, flow cytometry; conditions: Table 2, 14 h
How it was run: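 Human Jurkat cells treated with compounds plus disulfide probe Compound 2 (2.5 μM) for 14 h at 37 °C. Cytoplasmic release of pH-sensitive fluorophore Compound 3 quantified by flow cytometry. IC50 by non-linear regression; efficacy as % fluorescence change relative to Compound 1 maximum (100%).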

solubility thermodynamic at 24 h [2]: 3 ± 1 µM (≈ 5.82 µg/mL)
EC50 ([3]; read-out: Potency, EC50 ± standard deviation, Jurkat lymphocytes, disulfide-linked fluorescent probe (2.5 μM)): 9 ± 6 µM
SMILES: CC(C)[C@H](NC(=O)[C@@H](NC(=O)[C@@H]1CCCN1C(=O)[C@@H]1CCCN1C(=O)[C@H](Cc1ccc(O)cc1)NC(=O)[C@H](Cc1c[nH]c2ccccc12)NC(=O)[C@H](Cc1ccc(O)cc1)NC(=O)[C@H](Cc1c[nH]c2ccccc12)NC(=O)[C@H](C)NC(=O)[C@H](Cc1ccc(O)cc1)NC(=O)[C@H](Cc1c[nH]c2ccccc12)NC(=O)[C@H](C)NC(=O)C(C)(C)NC(=O)C(C)(C)NC(=O)C(C)(C)NC(=O)C(C)(C)N)C(C)C)C(N)=O [Compound 81] (H-[Aib][Aib][Aib][Aib]AWYAWYWYPPVV-NH2)
IC50 [1]: > 8 µM
Efficacy (% of 1) ([3]; % of the effect of compound 1, calculated span of dose-response curve, ± standard deviation, Jurkat): 83 ± 13%
